biological target: T1, Recombinant human GR (Homo sapiens, UniProt P04150); assay: GR competitor assay (receptor competitor assay by fluorescence polarization, Invitrogen kit P2816); details: 20 μM test compound solution (10 μL per well plus 5 μL 4×GS1 and 5 μL 4×GR); relative to 2 mM dexamethasone positive control; ratios of 100% or more are indicated by 100%; read-out: GR Binding ratio (%)
T1 construct: purchased Invitrogen P2816
T1 sequence (P04150 1-777): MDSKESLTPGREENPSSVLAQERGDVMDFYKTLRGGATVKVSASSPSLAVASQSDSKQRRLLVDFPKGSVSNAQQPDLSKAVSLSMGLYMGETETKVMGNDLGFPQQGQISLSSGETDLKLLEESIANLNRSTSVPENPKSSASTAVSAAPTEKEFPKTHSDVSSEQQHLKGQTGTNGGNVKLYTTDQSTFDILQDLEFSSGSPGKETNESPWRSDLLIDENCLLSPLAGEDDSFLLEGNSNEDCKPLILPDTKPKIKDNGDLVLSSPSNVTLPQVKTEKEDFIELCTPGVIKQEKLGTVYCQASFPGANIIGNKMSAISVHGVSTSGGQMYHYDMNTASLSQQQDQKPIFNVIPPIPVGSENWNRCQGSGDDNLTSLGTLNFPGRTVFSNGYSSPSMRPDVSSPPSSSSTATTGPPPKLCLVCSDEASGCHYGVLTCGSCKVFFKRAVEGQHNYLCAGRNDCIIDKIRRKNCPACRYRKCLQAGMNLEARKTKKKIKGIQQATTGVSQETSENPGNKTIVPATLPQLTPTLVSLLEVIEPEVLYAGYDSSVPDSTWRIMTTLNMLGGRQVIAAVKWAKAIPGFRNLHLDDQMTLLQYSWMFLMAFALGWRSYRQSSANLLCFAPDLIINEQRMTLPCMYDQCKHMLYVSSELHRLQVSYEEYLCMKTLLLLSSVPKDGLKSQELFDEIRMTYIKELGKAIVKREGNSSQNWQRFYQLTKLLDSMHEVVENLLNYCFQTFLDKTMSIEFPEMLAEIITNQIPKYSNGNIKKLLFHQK
Experimental: In order to evaluate a binding activity to GR, a receptor competitor assay was carried out by a fluorescence polarization method. In the assay, a GR competitor assay kit (manufactured by Invitrogen, cat No. P2816) was used, and a procedure was carried out according to the protocol attached to the kit. Hereinafter, the specific method will be described.
GR screening buffer: A buffer containing 10 mM potassium phosphate (pH 7.4), 20 mM sodium molybdate (Na2MoO4), 0.1 mM ethylene diamine tetraacetic acid (EDTA), 5 mM dithiothreitol (DTT), 0.1 mM stabilizing peptide and 2% dimethylsulfoxide was prepared.
4×GS1 solution: Fluormone™ GS1, which is a fluorescent glucocorticoid ligand, was diluted with GR screening buffer, whereby a 4 nM solution was prepared.
4×GR solution: Recombinant human GR was diluted with GR screening buffer, whereby a 16 nM solution was prepared.
After a test compound was dissolved in dimethylsulfoxide, the resulting solution was diluted with GR screening buffer, whereby a 20 μM test compound solution was prepared.
1) The test compound solution was added in an amount of 10 μL into each well of a 384-well plate, and then, 4×GS1 solution and 4×GR solution were added in an amount of 5 μL into each well, respectively.
2) The plate was incubated in a dark place at room temperature for 2 to 4 hours.
3) By using a multimode plate reader, Analyst™ HT (manufactured by LJL Biosystems), fluorescence polarization of each well was measured. As the blank, a well containing GR screening buffer in place of the test compound and 4×GS1 solution was used.
4) The same procedure as that in the above 1) to 3) was carried out except that GR screening buffer was used in place of the test compound solution, and the obtained result was taken as the negative control.
5) The same procedure as that in the above 1) to 3) was carried out except that 2 mM dexamethasone was used in place of the test compound solution, and the obtained result was taken as the positive control.
A GR binding ratio (%) was calculated from the following equation. GR binding ratio(%)=100×[1−(fluorescence polarization of test compound solution−fluorescence polarization of positive control solution)/(fluorescence polarization of negative control solution fluorescence polarization of positive control solution)] (Test Results and Discussion)

Structure (SMILES)	inhibition at 20 µM (stock) [%]	inhibition at 20 µM [%]
COc1cc(OS(=O)(=O)CC(C)C)ccc1-c1ccc2c(c1COC(=O)c1ccc(C)s1)C(C)=CC(C)(C)N2 [Compound 2-3]	97	
COc1cc(OS(=O)(=O)C(C)C)ccc1-c1ccc2c(c1COC(=O)c1ccc(C)s1)C(C)=CC(C)(C)N2 [Compound 2-4, 6-(4-Isopropylsulfonyloxy-2-methoxyphenyl)-5-(5-methylthiophen-2-ylcarbonyloxymethyl)-2,2,4-trimethyl-1,2-dihydroquinoline]	100	
COc1cc(OS(=O)(=O)C2CCCC2)ccc1-c1ccc2c(c1COC(=O)c1ccc(C)s1)C(C)=CC(C)(C)N2 [Compound 2-5, 6-(4-Cyclopentylsulfonyloxy-2-methoxyphenyl)-5-(5-methylthiophen-2-ylcarbonyloxymethyl)-2,2,4-trimethyl-1,2-dihydroquinoline]	100	
COc1cc(OS(C)(=O)=O)ccc1-c1ccc2c(c1COC(=O)c1ccc(C)s1)C(C)=CC(C)(C)N2 [Compound 2-6, 6-(2-Methoxy-4-methylsulfonyloxyphenyl)-5-(5-methylthiophen-2-ylcarbonyloxymethyl)-2,2,4-trimethyl-1,2-dihydroquinoline]	100	
CCS(=O)(=O)Oc1ccc(-c2ccc3c(c2COC(=O)c2ccc(C)s2)C(C)=CC(C)(C)N3)c(OC)c1 [Compound 2-7, 6-(4-Ethylsulfonyloxy-2-methoxyphenyl)-5-(5-methylthiophen-2-ylcarbonyloxymethyl)-2,2,4-trimethyl-1,2-dihydroquinoline]	100	
CCCCS(=O)(=O)Oc1ccc(-c2ccc3c(c2COC(=O)c2ccc(C)s2)C(C)=CC(C)(C)N3)c(OC)c1 [Compound 2-8, 6-(4-Butylsulfonyloxy-2-methoxyphenyl)-5-(5-methylthiophen-2-ylcarbonyloxymethyl)-2,2,4-trimethyl-1,2-dihydroquinoline]	100	
COc1cc(OS(=O)(=O)C2CC2)ccc1-c1ccc2c(c1COC(=O)c1ccc(C)s1)C(C)=CC(C)(C)N2 [Compound 2-9, 6-(4-Cyclopropylsulfonyloxy-2-methoxyphenyl)-5-(5-methylthiophen-2-ylcarbonyloxymethyl)-2,2,4-trimethyl-1,2-dihydroquinoline]	100	
COC(=O)Oc1ccc(-c2ccc3c(c2COC(=O)c2ccc(C)s2)C(C)=CC(C)(C)N3)c(OC)c1 [Compound 3-1, 6-(2-Methoxy-4-methoxycarbonyloxyphenyl)-5-(5-methylthiophen-2-ylcarbonyloxymethyl)-2,2,4-trimethyl-1,2-dihydroquinoline]	91	
COc1cc(OC(=O)Nc2cccnc2)ccc1-c1ccc2c(c1COC(=O)c1ccc(C)s1)C(C)=CC(C)(C)N2 [Compound 4-1, 6-[2-Methoxy-4-(pyridin-3-ylaminocarbonyloxy)phenyl]-5-(5-methylthiophen-2-ylcarbonyloxymethyl)-2,2,4-trim ethyl-1,2-dihydroquinoline]		100
COc1cc(OC(=O)N2CCOCC2)ccc1-c1ccc2c(c1COC(=O)c1ccc(C)s1)C(C)=CC(C)(C)N2 [Compound 4-3, 6-[2-Methoxy-4-(morpholin-4-ylcarbonyloxy)phenyl]-5-(5-methylthiophen-2-ylcarbonyloxymethyl)-2,2,4-trimethyl-1,2-dihydroquinoline]	94	
